Experimental data reported in patent US5143918A, “Halomacrolides and derivatives having immunosuppressive activity” (Merck & Co., Inc., priority 1991, dated 1992).
Read-outs that look alike come from different tables or passages of the source.

What was measured:
T lymphocytes (T-cells) = experiment: T-Cell Proliferation Assay (tritiated thymidine uptake); assay type: cell-based, C57B1/6 mice; conditions: mouse spleen T lymphocytes, ionomycin 250 ng/ml and PMA 10 ng/ml, 44 h culture + 4 h tritiated thymidine, read-out: IC50 (concentration of compound required to inhibit tritiated thymidine uptake / proliferation of T-cells by 50%)
Description: T-Cell Proliferation Assay
The compounds to be assayed were dissolved in absolute ethanol at 1 mg/ml.
Spleens from C57B1/6 mice were taken under sterile conditions and gently dissociated in ice-cold RPMI 1640 culture medium (GIBC), Grand Island, N.Y.) supplemented with 10% heat-inactivated fetal calf serum (GIBO)). Cells were pelleted by centrifugation at 1500 rpm for 8 minutes. Contaminating red cells were removed by treating the pellet with ammonium chloride lysing buffer (GIBO)) for 2 minutes at 4° C. Cold medium was added and cells were again centrifuged at 1500 rpm for 8 minutes. T lymphocytes were then isolated by separation of the cell suspension on nylon wool columns as follows: Nylon wool columns were prepared by packing approximately 4 grams of washed and dried nylon wool into 20 ml plastic syringes. The columns were sterilized by autoclaving at […]. for 30 minutes. Nylon wool columns were wetted with warm (37° C.) culture medium and rinsed with the same medium. Washed spleen cells resuspened in warm medium were slowly applied to the nylon wool. The columns were then incubated in an upright position at 37° C. for 1 hour. Non-adherent T lymphocytes were eluted from the columns with warm culture medium and the cell suspensions were spun as above.
Purified T lymphocytes were resuspended at 2.5×10^5 cells/ml in complete culture medium composed of RPMI 1640 medium with 10% heat-inactivated fetal calf serum, […], 1 mM sodium pyruvate, 2×10^-5 M 2-mercaptoethanol and 50 μg/ml gentamycin. Ionomycin was added at 250 ng/ml and PMA at 10 ng/ml. The cell suspension was immediately distributed into 96 well flat-bottom microculture plates (Costar) at 200 μl/well. The various dilutions of the compound to be tested were then added in triplicate wells at 20 ul/well. The compound 17-allyl-1,14-dihydroxy-12-[2'-(4"-hydroxy-3"-methoxycyclohexyl)-1'-methylvinyl]-23,25-dimethoxy-13,19,21,27-tetramethyl-11,28-dioxa-4-azatricyclo[22.3.1.0^4,9 ]octacos-18-ene-2,3,10,16-tetraone was used as a standard. The culture plates were then incubated at 37° C. in a humidified atmosphere of 5% CO2 -95% air for 44 hours. The proliferation of T lymphocytes was assessed by measurement of tritiated thymidine incorporation. After 44 hours of culturing, the cells were pulse-labelled with 2 μCi/well of tritiated thymidine (NEN, Cambridge, Mass.). After another 4 hours of incubation, cultures were harvested on glass fiber filters using a multiple sample harvester. Radio activity of filter discs corresponding to individual wells was measured by standard liquid scintillation counting methods (Betacounter). Mean counts per minute of replicate wells were calculated and the results expressed as concentration of compound required to inhibit tritiated thymidine uptake of T-cells by 50%.
A selection of compounds were tested according to the previous procedure. The concentration of compound required to inhibit the proliferation of T-cells by 50% was measured, and the results were as follows: […]

in vitro immune systems = conditions: versus cyclosporin; J. Antibiotics 1987, 40, 1256; cited from earlier work

| Molecule | IC50 (T lymphocytes (T-cells); T-cell) [nM] | further results |
| --- | --- | --- |
| 17-Ethyl-1-hydroxy-12-[2'-(3"-chloro-4"-hydroxycyclohexyl)-1'-methylvinyl]- 23,25-dimethoxy-13,19,21,27-tetramethyl-11,28-dioxa-4-azatricyclo[22.3.1.0^4,9 ]octacos-18-ene-2,3,10,16-tetraone [Example 87] | – | IC50 (T lymphocytes (T-cells)): < 1000 nM |
| CCC1C=C(C)CC(C)CC(OC)C2OC(O)(C(=O)C(=O)N3CCCCC3C(=O)OC(C(C)=CC3CCC(Cl)C(OC)C3)C(C)CCC1=O)C(C)CC2OC (stereo not drawn) [Example 40, 17-Ethyl-1-hydroxy-12-[2'-(4"-beta-chloro-3"-methoxycyclohexyl)-1'-methylvinyl]-23,25-dimethoxy-13,19,21,27-tetramethyl-11,28-dioxa-4-azatricyclo-[22.3.1.0^4,9]octacos-18-ene-2,3,10,16-tetraone] | < 1000 | – |
| CCC1C=C(C)CC(C)CC(OC)C2OC(O)(C(=O)C(=O)N3CCCCC3C(=O)OC(C(C)=CC3CCC(Cl)C(OC)C3)C(C)C(O)CC1=O)C(C)CC2OC (stereo not drawn) [Example 53, 17-Ethyl-1,14-dihydroxy-12-[2'-(4"-beta-chloro-3"-methoxycyclohexyl)-1'-methylvinyl]-23,25-dimethoxy-13,19,21,27-tetramethyl-11,28-dioxa-4-azatricyclo[22.3.1.0^4,9]octacos-18-ene-2,3,10,16-tetraone] | < 1000 | – |
| CCC1C=C(C)CC(C)CC(OC)C2OC(O)(C(=O)C(=O)N3CCCCC3C(=O)OC(C(C)=CC3CCC(Br)C(OC)C3)C(C)C(O)CC1=O)C(C)CC2OC (stereo not drawn) [Example 56, 17-Ethyl-1,14-dihydroxy-12-[2'-(4"-beta-bromo-3"-methoxycyclohexyl)-1'-methylvinyl]-23,25-dimethoxy-13,19,21,27-tetramethyl-11,28-dioxa-4-azatricyclo[22.3.1.0^4,9]octacos-18-ene-2,3,10,16-tetraone] | < 1000 | – |
| CCC1C=C(C)CC(C)CC(OC)C2OC(O)(C(=O)C(=O)N3CCCCC3C(=O)OC(C(C)=CC3CCC(I)C(OC)C3)C(C)C(O)CC1=O)C(C)CC2OC (stereo not drawn) [Example 59, 17-Ethyl-1,14-dihydroxy-12-[2'-(4"-beta-iodo-3"-methoxycyclohexyl)-1'-methylvinyl]-23,25-dimethoxy-13,19,21,27-tetramethyl-11,28-dioxa-4-azatricyclo-[22.3.1.0^4,9]octacos-18-ene-2,3,10,16-tetraone] | – | IC50 (T lymphocytes (T-cells)): < 1000 nM |
| CCC1C=C(C)CC(C)CC(OC)C2OC(O)(C(=O)C(=O)N3CCCCC3C(=O)OC(C(C)=CC3CCC(F)C(OC)C3)C(C)C(O)CC1=O)C(C)CC2OC (centres unmarked) [Example 62, 17-Ethyl-1,14-dihydroxy-12-[2'-(4"-fluoro-3"-methoxycyclohexyl)-1'-methylvinyl]-23,25-dimethoxy-13,19,21,27-tetramethyl-11,28-dioxa-4-azatricyclo-[22.3.1.0^4,9]octacos-18-ene-2,3,10,16-tetraone] | < 1000 | – |
| CCC1C=C(C)CC(C)CC(OC)C2OC(O)(C(=O)C(=O)N3CCCCC3C(=O)OC(C(C)=CC3CCC(O)C(Br)C3)C(C)CCC1=O)C(C)CC2OC (centres unmarked) [Example 89, 17-Ethyl-1-hydroxy-12-[2'-(3"-bromo-4"-hydroxycyclohexyl)-1'-methylvinyl]-23,25-dimethoxy-13,19,21,27-tetramethyl-11,28-dioxa-4-azatricyclo[22.3.1.0^4,9]octacos-18-ene-2,3,10,16-tetraone] | < 1000 | – |
| C=CCC1C=C(C)CC(C)CC(OC)C2OC(O)(C(=O)C(=O)N3CCCCC3C(=O)OC(C(C)=CC3CCC(O)C(OC)C3)C(C)C(O)CC1=O)C(C)CC2OC (centres unmarked) [FR-900506, 17-allyl-1,14-dihydroxy-12-[2'-(4"-hydroxy-3"-methoxycyclohexyl)-1'-methylvinyl]-23,25-dimethoxy-13,19,21,27-tetramethyl-11,28-dioxa-4-azatricyclo-[22.3.1.0^4,9]octacos-18-ene-2,3,10,16-tetraone] | – | times more effective than cyclosporin in the suppression of in vitro immune systems (in vitro immune systems): 100 times |
